Laboratory results published in patent EP4603088A1, “N-PALMITOYLET[…] USE IN COMBINATION WITH MELOXICAM IN THE TREATMENT OF IN[…]” (priority 2024, dated 2025).
“And” between values parts separate entries of the source, which are not always exact repeats. Equal entries are not always repeated.

Assays:
[1] = administered in ultra-micronized form; Nestmann Food Sci Nutr. 2016; cited from earlier work
[2] = tested on: LPS-induced inflammatory pain; assay: LPS-induced inflammatory pain model, paw pressure test; format: in vivo, Male Sprague-Dawley rats; settings: 60 min after LPS
Procedure: Male Sprague-Dawley rats were housed in groups of four, in 26x41 cm cages, at a temperature of 23±1°C, with a 12-hour circadian cycle, and water/food "ad libitum" (standard diet). LPS (10 µg in 50 µl of 0.9% NaCl, Sigma-Aldrich) was injected into the plantar surface of the hind paw of the rat following isoflurane anesthesia. Control animals were treated with vehicle alone (0.9% NaCl). Ten minutes before the LPS injection, the compounds to be tested or the vehicle alone (1% CMC) were administered orally, according to the following treatment groups (N=8 where not otherwise specified): • CTRL (healthy animals injected with 0.9% NaCl) • VEIC (animals injected with LPS and treated with vehicle, N=9) • MLX30 (animals injected with LPS and treated with meloxicam 30 mg/kg) • MLX3 (animals injected with LPS and treated with meloxicam 3 mg/kg) • PEA10 (animals injected with LPS and treated with PEA 10 mg/kg) • PEA10+MLX3 (animals injected with LPS and treated with PEA 10 mg/kg + meloxicam 3 mg/kg) • PEA5 (animals injected with LPS and treated with PEA 5 mg/kg) • PEA5 + MLX3 (animals injected with LPS and treated with PEA 5 mg/kg + meloxicam 3 mg/kg).
Inflammatory pain induced by LPS injection was measured by paw pressure test. Briefly, before and sixty min after LPS injection, increasing pressure at a constant rate (32 g/s) was applied to the ipsilateral paw of the rat using a non-sharp conical support. […] An analgesimeter (Ugo Basile, Varese) was used for this purpose. The results were expressed in terms of analgesic potency, defined as percentage inhibition (mean ± SEM) of inflammatory pain induced by LPS and calculated according to the formula: 100*(treatm-VEIC)/(CTRL-VEIC).
The results were analyzed via Generalized Linear Model (GLM) followed by post-hoc analysis based on Tukey-Kramer correction for multiple comparisons. […] In order to verify whether the effect of PEA and meloxicam was synergistic, it was analyzed whether the extent of the inhibition of inflammatory pain by LPS was greater for the association of the two substances compared to the substances used individually. […] All analyses were performed using SAS software, version 9.4 (SAS Institute, Cary, NC, USA). P value < 0.05 was considered significant.

[3] = tested on: inflammatory pain induced by Carrageenan; assay: Carrageenan-induced inflammatory pain model, Von Frey test; format: in vivo, male Sprague-Dawley rats; settings: PEA 3 mg/kg and/or MLX 0.05 mg/kg orally 30 minutes before CAR; 3 and 5 hours after CAR injection; combination p=0.0084 and p=0.0004 vs vehicle
Procedure: All analyses were performed using SAS software, version 9.4 (SAS Institute, Cary, NC, USA). P value < 0.05 was considered significant.

[4] = tested on: CFA-induced inflammatory pain; assay: CFA-induced inflammatory pain model, paw pressure test; format: in vivo, male Sprague-Dawley rats; settings: meloxicam 3 mg/kg and/or micronized PEA 10 mg/kg, single administration per os on day 7 after CFA; T0-T60; p = 0.1405 (meloxicam), p = 0.9588 (PEA), p < 0.0001 (combination)
Text: In the in vivo experimentation, male Sprague-Dawley rats (200-250 g) (Envigo, Varese, Italy) fed "ad libitum" and housed in cages with a controlled sleep/wake cycle were used.
Before the start of the study, the animals were subjected to a 1-week acclimatization period at the Center for Laboratory Animal Sheltering (Ce.S.A.L.) of the University of Florence, following all experimental procedures and protocols compliant with the principles of care and welfare of laboratory animals approved by the Italian Ministry of Health (Italian Legislative Decree 2014/26), European directives (EU Directive 2010/63) and the ARRIVE guidelines. […]
All animals were subjected to the paw pressure test at the level of the ipsilateral paw, performed before (T0) or after 15, 30, 45 and 60 minutes after the single administration of the treatment (T15, T30, T45 and T60, respectively). In particular, the nociceptive threshold was calculated with an analgesiometer (Ugo Basile, Varese, Italy) by applying an increasing pressure at constant speed (32 g/s) by means of a non-pointed conical support on the dorsal surface of the ipsilateral paw with respect to the injection of CFA (or vehicle). […]
The AUC was analyzed by a two-way factor analysis of variance (2x2 ANOVA), after plotting the mean values, according to the procedure shown by Slinker BK. […] The values were expressed as mean ± standard error mean (SEM). […]

## CCCCCCCCCCCCCCCC(=O)NCCO [PEA, N-palmitoylethanolamide]
[1]
  dose up to which free of acute and sub-chronic toxicity: ≥ 1000 mg/kg daily
[2]; PEA 5 mg/kg orally 10 min before LPS
  analgesic potency, percentage inhibition of inflammatory pain induced by LPS (media): 26,46% and 26,5%
[2]; PEA 10 mg/kg orally 10 min before LPS
  analgesic potency, percentage inhibition of inflammatory pain induced by LPS (media): 54,24% and 54,2%
[2]; meloxicam at 3 mg/kg and 30 mg/kg, PEA at 5 mg/kg and 10 mg/kg, alone or associated with low-dose meloxicam, p<0.0001 for all comparisons
  effect on the LPS-induced drop of the nociceptive threshold vs LPS vehicle: significantly counteracted the pro-algic effect of LPS
[3]
  analgesic effect vs vehicle (Von Frey test, paw retraction): no analgesic effect significantly different from the vehicle
[4]
  inflammatory pain tolerance threshold (paw pressure test), effect with respect to CFA: no significant effect

## Cc1cnc(NC(=O)C2=C(O)c3ccccc3S(=O)(=O)N2C)s1 [meloxicam]
[2]; meloxicam 3 mg/kg orally 10 min before LPS, listed as MLX
  analgesic potency, percentage inhibition of inflammatory pain induced by LPS (media): 46,12% and 46,1%
[2]; meloxicam 30 mg/kg orally 10 min before LPS, listed as MLX
  analgesic potency, percentage inhibition of inflammatory pain induced by LPS (media): 50,49% and 50,5%
[4]
  inflammatory pain tolerance threshold (paw pressure test), effect with respect to CFA: no significant effect
